pIC50: −log10 of the molar value.
Assays:
[1] = test system: advanced triple-negative breast cancer; conditions: in vivo; cited from earlier work
[2] = test system: pleural mesothelioma (PM); conditions: 25 patients with pleural mesothelioma (PM); cited from earlier work
[3] = test system: advanced Hodgkin's lymphoma (HL); conditions: advanced HL patients with no treatment response to any of the approved drugs; cited from earlier work
[4] = molecular target: PD-1/PD-L1 (Homo sapiens (Human), UniProt Q9NZQ7); assay: Cisbio HTRF binding assay, PD-1/PD-L1 small molecule inhibitor screening; conditions: for pIC50: HTRF, PD-1 (HIS tag) / PD-L1 (hFc tag), 8-10 concentrations
PD-1/PD-L1, sequence (Q9NZQ7 19-238): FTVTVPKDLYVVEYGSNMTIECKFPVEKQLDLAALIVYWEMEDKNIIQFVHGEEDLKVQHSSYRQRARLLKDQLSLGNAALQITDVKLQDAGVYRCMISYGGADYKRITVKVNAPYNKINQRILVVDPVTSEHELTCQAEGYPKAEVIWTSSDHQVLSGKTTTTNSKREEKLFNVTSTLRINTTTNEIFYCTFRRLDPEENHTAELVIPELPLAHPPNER
Source text: In vitro activity evaluation: Cisbio HTRF binding assay kit was applied for the detection method of in vitro enzymology level.
Screening Principles and Methods of PD-1/PD-L1 Small Molecule Inhibitors
1) Principle: PD-1 protein is with HIS tag, and PD-1 ligand PD-L1 is with hFc tag. Eu labeled anti-hFc antibody and XL665 labeled anti-HIS antibody are combined with the above two label proteins respectively. After laser excitation, energy can be transferred from donor Eu to receptor XL665, allowing XL665 to glow.
2) Experimental method: Reagents should be dispensed in the following order. For 384-well white ELISA plate, 2 μl of diluent or target compound diluted with diluent was added to each well, and then 4 μl of PD-1 protein and 4 μl of PD-L1 protein were added per well, incubated for 15 min at the room temperature; and 10 μl of anti-Tag1-Eu3^+ and anti-Tag2-XL665 was added per well and incubated for 1 h at the room temperature and the fluorescence signals at 665 nm and 620 nm were measured. HTRF rate=(665 nm/620 nm)*10^4. 8-10 concentrations were detected for each compound and IC50 was calculated by Graphpad software.

Compound	treatment response [3]	inhibition of the interaction between PD-1 and PD-L1 [4]	pIC50 [4]	other results
MPDL3280A: Roche's PD-L1 monoclonal antibody				effect in advanced triple-negative breast cancer [1]: long-lasting effect
pembrolizumab [Keytruda]	complete remission			disease control rate [2]: 76%; overall response rate (ORR) [2]: 28%
CC(=O)NCCNCc1cc(Cl)c(OCc2cccc(-c3ccccc3)c2Br)cc1OCc1cccc(C#N)c1 [Example 2, N-acetylaminoethyl-4-(2-bromo-3-phenylbenzyloxy)-2-(3-cyanobenzyloxy)-5-chlorobenzylamine]		significantly inhibit	7.21	
nivolumab [Opdvio]	complete remission			
(R)—N-[2-(5-cyanopyridine-3-methyleneoxy)-4-(2-methyl-3-(2,3-dihydrobenzo[b][1,4]dioxin-6-yl)benzyloxy)-5-chlorobenzyl]-3-(pyridin-3-yl)alanine [Example 6]		significantly inhibit	7.46	

From patent publication US10815208B2, “Method for preparing 2-hydroxyl-4-(2, 3-disubstituted benzyloxy)-5-substituted benzaldehyde derivative” (Institute of Materia Medica, Chinese Academy of Medical …, priority 2016, dated 2020)
